The target of one data set is human NR1/NR2A (Homo sapiens (Human), UniProt Q05586+Q12879). Description: NR2A antagonist activity, Fluo-4 calcium influx assay in HEK293 cells. The data set is classed as cell-based. The method, then:
(§1) Activation of the NR2A or NR2B subtype of NMDA receptor with glutamate as an agonist and glycine co-agonist on these cells results in calcium influx, which can be monitored with fluorescent indicator Fluo-4.
(§2) For experiments, the cells were seeded onto poly-D-lysine-coated 96-well black plates with clear bottom (Corning) at a density of ˜50,000 cells/well. After overnight culture, the growth medium was removed from the wells and the cells were incubated at 37° C. for 60 min in Hanks buffer containing 4 μM fluo-4-AM (Invitrogen) and 0.1% bovine serum albumin (BSA). After dye-loading, the cells were washed three times with Hanks buffer and incubated for 10 min at room temperature with various concentrations of test compounds prepared in Hanks buffer with 0.1% BSA. The cell plates were placed onto FDSS μCell fluorescence reader (Hamamatsu). After 20 sec reading of background fluorescence, agonist glutamate at final 100 μM and co-agonist glycine at final 50 μM were added to the cells to activate the receptor, and the resulting fluorescence changes were recorded and quantified.

For another data set, the target named is human NR1/NR2B (Homo sapiens (Human), UniProt Q13224). Briefly: NR2B antagonist activity, Fluo-4 calcium influx assay in HEK293 cells. The data set is classed as cell-based. To be noted: HEK293 cells stably expressing NR2B; glutamate 100 μM, glycine 50 μM. The method, then:
as §1, §2

The next data set relates to Male mice (strain NLMN). Description: Forced swim test. The data set is classed as in vivo. The method, then: Mice that are forced to swim in a situation from which they cannot escape, rapidly become immobile. Drugs with antidepressant activity, such as imipramine, reduce the amount of time spent in the immobile state. […] All animals were housed in a temperature (22-24° C.) and humidity (50-60%) controlled environment with free access to food and water on a 12-hour light-dark cycle. Test compounds were dissolved in 0.5% dimethylsulfoxide, 4% hydroxypropyl-b-cyclodextrin water to generate the appropriate dosing solution. Drugs were administered by intraperitoneal injection at a dose volume of 10 mL/kg. Testing was initiated 20-60 minutes after dosing. […] Mice were placed in a white plastic cylinder 20 cm high with a diameter of 21 cm containing 10 cm of water at 25±2° C. The mice were videotaped for 6 minutes, and the last 4 minutes of video were analyzed by a blinded observer off-line. The observer judged the animal to be immobile when it ceased all activity (struggling, swimming, jumping etc.) and floated passively atop the water. The amount of time each animal spent in the immobile state was recorded and used for statistical analysis of compound effect. Group differences were evaluated by student's t-test or one-way ANOVA followed by post-hoc Dunnett's test.

A further data set has as its target hERG channel (Homo sapiens (Human), UniProt Q12809). Briefly: hERG channel inhibition, whole cell patch clamp in HEK293 cells. The data set is classed as cell-based. To be noted: hERG stably expressed in HEK293 cells.
The next data set addresses CYP2D6 (Homo sapiens (Human), UniProt P10635). Description: CYP P450 enzyme inhibition in pooled human liver microsome. For orientation: Liver microsomes are a subcellular fraction often used to study metabolism.

The text below walks through data of patent US10030026B2, “Difluoroethylpyridine derivatives as NR2B NMDA receptor antagonists” (Rugen Holdings (Cayman) Limited, priority 2014, dated 2018).

SMILES strings stand for the structures. pIC50: −log10 of the molar value. Several values for one entry are separate records, joined by “and”; a condition that tells them apart may be missing. Equal entries are not always repeated. Bounds are passed on as bounds.

Chain of human NR1/NR2A (Q12879 23-1464, other chains not shown): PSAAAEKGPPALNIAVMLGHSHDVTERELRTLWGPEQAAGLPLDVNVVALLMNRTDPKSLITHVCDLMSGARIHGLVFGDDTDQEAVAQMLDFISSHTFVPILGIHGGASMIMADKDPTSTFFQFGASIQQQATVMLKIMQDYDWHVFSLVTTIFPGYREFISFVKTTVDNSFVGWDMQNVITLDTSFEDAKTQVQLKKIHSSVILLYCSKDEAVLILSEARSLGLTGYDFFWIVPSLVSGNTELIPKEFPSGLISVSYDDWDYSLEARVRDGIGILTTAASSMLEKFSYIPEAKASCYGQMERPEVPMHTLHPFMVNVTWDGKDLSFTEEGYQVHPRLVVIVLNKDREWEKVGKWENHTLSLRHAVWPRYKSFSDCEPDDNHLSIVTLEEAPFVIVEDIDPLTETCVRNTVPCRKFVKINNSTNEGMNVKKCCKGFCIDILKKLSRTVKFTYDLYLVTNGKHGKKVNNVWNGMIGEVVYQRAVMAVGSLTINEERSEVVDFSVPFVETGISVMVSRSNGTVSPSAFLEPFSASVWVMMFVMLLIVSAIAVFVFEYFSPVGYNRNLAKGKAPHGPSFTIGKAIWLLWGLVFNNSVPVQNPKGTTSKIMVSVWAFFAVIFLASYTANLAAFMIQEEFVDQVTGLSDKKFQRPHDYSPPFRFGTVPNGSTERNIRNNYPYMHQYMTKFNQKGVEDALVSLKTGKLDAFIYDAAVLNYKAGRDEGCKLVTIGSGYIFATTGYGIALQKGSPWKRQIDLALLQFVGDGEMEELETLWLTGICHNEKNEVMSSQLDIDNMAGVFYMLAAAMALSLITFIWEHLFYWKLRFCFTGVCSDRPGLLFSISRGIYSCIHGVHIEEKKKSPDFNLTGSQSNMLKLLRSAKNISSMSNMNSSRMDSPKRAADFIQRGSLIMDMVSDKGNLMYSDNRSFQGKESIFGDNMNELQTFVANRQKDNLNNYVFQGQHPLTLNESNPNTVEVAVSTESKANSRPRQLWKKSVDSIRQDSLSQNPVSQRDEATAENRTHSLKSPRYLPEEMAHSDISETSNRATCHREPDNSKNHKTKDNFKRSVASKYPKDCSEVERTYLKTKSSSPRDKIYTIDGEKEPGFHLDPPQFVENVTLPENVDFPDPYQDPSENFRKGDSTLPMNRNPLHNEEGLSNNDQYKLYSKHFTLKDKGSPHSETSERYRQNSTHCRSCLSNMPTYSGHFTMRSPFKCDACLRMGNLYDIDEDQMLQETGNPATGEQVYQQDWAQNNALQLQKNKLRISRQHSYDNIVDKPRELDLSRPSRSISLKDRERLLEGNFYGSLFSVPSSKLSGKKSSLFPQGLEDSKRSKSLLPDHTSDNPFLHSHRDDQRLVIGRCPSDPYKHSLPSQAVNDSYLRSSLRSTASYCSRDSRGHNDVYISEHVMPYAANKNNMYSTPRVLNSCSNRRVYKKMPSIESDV
Chain of human NR1/NR2B (Q13224 27-1484, other chains not shown): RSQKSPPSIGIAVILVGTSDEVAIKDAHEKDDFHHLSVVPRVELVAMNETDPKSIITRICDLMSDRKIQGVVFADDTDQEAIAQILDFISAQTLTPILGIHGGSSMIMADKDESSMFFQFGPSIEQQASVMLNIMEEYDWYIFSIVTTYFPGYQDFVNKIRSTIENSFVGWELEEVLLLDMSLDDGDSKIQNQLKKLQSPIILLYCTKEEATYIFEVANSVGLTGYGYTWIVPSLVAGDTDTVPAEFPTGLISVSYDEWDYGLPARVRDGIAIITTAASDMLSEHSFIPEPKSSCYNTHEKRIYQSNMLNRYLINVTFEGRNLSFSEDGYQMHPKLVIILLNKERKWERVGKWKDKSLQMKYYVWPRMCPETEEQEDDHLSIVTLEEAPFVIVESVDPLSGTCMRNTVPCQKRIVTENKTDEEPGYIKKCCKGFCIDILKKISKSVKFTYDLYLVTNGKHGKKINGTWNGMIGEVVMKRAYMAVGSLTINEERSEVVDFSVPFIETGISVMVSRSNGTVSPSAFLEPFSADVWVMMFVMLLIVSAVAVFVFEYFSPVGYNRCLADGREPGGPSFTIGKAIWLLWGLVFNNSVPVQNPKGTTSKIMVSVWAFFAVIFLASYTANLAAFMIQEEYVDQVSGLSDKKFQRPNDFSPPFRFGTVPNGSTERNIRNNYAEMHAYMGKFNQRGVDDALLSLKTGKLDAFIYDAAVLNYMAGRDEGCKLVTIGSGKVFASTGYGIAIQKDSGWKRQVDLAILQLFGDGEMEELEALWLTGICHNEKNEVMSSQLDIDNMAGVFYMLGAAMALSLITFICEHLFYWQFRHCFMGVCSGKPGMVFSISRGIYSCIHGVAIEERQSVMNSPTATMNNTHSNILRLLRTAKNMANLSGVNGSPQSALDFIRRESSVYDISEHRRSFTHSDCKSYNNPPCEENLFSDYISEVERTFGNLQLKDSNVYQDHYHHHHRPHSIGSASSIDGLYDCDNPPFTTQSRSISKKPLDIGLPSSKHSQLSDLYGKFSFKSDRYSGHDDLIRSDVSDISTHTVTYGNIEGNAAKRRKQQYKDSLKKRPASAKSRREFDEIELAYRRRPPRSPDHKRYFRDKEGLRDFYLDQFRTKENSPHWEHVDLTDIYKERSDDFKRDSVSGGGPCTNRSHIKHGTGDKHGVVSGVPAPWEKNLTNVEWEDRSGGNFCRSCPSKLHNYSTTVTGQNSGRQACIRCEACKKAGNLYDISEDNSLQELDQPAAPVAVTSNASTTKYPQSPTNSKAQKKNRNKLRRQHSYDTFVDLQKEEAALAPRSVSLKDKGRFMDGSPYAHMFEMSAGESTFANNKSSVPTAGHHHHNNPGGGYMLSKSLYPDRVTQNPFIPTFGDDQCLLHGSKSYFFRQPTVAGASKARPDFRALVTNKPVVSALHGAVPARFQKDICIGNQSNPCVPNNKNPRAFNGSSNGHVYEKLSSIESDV
Chain of hERG channel (Q12809 whole entry): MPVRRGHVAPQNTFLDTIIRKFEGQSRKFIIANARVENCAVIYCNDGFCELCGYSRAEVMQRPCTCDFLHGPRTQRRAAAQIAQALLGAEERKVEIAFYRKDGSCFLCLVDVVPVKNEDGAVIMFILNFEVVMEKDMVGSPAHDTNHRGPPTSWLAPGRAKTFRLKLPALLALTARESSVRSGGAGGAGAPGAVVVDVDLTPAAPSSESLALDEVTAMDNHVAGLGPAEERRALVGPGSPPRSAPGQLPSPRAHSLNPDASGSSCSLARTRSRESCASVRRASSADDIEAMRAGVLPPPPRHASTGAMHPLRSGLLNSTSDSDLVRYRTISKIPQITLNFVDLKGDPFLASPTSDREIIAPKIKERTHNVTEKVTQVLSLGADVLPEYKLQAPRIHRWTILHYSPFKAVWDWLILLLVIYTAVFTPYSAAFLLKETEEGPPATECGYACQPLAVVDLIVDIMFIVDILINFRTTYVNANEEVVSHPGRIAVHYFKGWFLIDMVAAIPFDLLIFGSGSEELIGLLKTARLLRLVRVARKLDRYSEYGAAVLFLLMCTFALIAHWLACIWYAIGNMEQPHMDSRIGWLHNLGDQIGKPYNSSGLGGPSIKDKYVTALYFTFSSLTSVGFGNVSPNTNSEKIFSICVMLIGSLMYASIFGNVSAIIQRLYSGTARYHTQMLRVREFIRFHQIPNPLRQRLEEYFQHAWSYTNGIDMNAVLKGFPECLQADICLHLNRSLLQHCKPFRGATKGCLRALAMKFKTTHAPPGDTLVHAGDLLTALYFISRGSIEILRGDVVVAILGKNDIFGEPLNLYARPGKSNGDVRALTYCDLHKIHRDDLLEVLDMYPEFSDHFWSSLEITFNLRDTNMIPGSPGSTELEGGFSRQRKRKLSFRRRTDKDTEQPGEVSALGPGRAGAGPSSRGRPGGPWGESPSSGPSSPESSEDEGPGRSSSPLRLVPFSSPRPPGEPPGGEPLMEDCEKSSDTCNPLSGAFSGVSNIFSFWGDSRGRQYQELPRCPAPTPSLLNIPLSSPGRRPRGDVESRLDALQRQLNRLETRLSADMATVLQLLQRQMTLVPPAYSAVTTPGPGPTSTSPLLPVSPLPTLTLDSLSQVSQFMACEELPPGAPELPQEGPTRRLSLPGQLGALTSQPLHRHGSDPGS
Chain of CYP2D6 (P10635 whole entry): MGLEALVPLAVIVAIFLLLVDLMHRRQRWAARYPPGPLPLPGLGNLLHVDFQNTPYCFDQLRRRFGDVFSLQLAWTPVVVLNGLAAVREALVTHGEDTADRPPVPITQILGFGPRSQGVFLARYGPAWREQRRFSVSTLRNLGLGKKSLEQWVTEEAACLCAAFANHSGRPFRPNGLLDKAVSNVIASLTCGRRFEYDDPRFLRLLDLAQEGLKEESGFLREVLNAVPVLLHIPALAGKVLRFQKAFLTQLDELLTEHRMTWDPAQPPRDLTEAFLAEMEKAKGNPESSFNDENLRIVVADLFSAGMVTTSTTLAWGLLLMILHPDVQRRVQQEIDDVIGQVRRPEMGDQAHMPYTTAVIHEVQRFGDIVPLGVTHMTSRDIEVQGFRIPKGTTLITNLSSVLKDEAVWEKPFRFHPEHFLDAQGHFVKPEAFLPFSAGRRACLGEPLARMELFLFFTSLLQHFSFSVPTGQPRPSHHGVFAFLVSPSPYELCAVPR
Experimental for CYP2D6: Those CYP isoforms and their corresponding probe substrates are as follows: CYP1A2 (phenacetin, 30 μM), CYP2C9 (tolutamide, 100 μM), CYP2C19 (S-mephenytoin, 40 μM), CYP2D6 (dextromethorphan, 5 μM) and CYP3A4 (midazolam, 1 μM). All probe substrates were used at concentrations near or below their Kms. For experiment, a reaction mixture of test compound at 10 uM or in serial dilution, CYP probe substrate described above and 0.2 mg/mL pooled HLM in phosphate buffer, pH 7.4 in a final volume of 200 μL was pre-incubated at 37° C. for 10 minutes in triplicate. The reaction was initiated by addition of NADPH at final concentration of 1 mM. […] The samples were then centrifuged at 13,000 rpm and the supernatants were injected to LC-MS/MS (Agilent Technologies) to quantify the concentration of the specific metabolites of the probe substrates formed by individual CYP450 isoforms. The inhibition ratio is calculated as: (Mt−M0)/Mwater×100% • in which Mt and M0 represent the concentrations of the specific probe substrate metabolite, which was formed by individual CYP450 isoform, at the beginning and end of the reaction in the presence of test compound; while Mwater represents the concentration of the specific metabolite at the end of the reaction in the absence of test compound. […]
Experimental for hERG channel: The assay was performed on hERG channel stably expressed in HEK293 cells. The cells were cultured at 37° C. in a humidified CO2 incubator in the growth medium consisting of DMEM, 10% fetal bovine serum and antibiotics. Prior to the assay, the cells were seeded onto a 12 mm PDL-coated glass coverslip and cultured in a 35 mm Petri dish. After 16 to 40 hr culture, the cover slip was transferred into the chamber of OctaFlow perfusion system (ALA Instrument) and under a constant flow of extracellular solution (140 mM NaCl, 4 M KCl, 1 mM MgCl2, 1 mM CaCl2, 10 mM HEPES, 10 mM D-glucose, pH 7.35, osmolarity 290). Whole cell patch clamping was performed with a glass micropipette filled with intracellular solution (120 mM KCl, 1.75 mM MgCl2, 10 mM HEPES, 10 mM EGTA, and 4 mM ATP-K2, PH 7.2, osmolarity 300). Giga-seal was maintained during the test. The voltage control and current measurement were carried out using Axon amplifier 700B, Digidata 1440A and CLAMPEX10 software (Molecular Devices). Whole-cell hERG currents were recorded following the Petroski protocol: the cell was held at −80 mV, and the voltage step jumped from −80 to 30 mV and stay for 2 sec with a 20 ms prepulse at −40 mV. After depolarization, the voltage was decreased to −40 mV and stay for 2 sec, and returned back to −80 mV. Test compound was applied by quartz capillary tubes tip (200 μm inner diameter), and the flow rate was controlled at 2-3 ml/min with OctaFlow perfusion system. Different concentrations of the compound were applied to the cells for 5 min and the hERG current was measured three times before, during and after compound treatment. The data were analyzed using Clampfit 10 software (Molecular Devices).

The term pIC50 denotes the IC50 on a negative log10 scale, so that one unit is a factor of ten. Turning to `Cc1ccc(C(F)(F)CN2CCC(Nc3ncnc4[nH]ncc34)CC2)nc1` [C-4, N-(1-(2,2-difluoro-2-(5-methylpyridin-2-yl)ethyl)piperidin-4-yl)-1H-pyrazolo[3,4-d]pyrimidin-4-amine], the pIC50 on human NR1/NR2A was below 5.00; on human NR1/NR2B, 7.28.

Turning to `Cc1cnc(C(F)(F)CN2CCC(Nc3ncnc4[nH]ncc34)CC2)c(F)c1` [C-17, N-(1-(2,2-difluoro-2-(3-fluoro-5-methylpyridin-2-yl)ethyl)piperidin-4-yl)-1H-pyrazolo[3,4-d]pyrimidin-4-amine], the pIC50 at human NR1/NR2A is below 5.00; at human NR1/NR2B it was 7.32.

In the case of `FC(F)Oc1ccc(C(F)(F)CN2CCC(Nc3ncnc4[nH]ncc34)CC2)nc1` [C-12], the negative-log IC50 (pIC50) was below 5.00 on human NR1/NR2A and 7.64 on human NR1/NR2B.

In the case of `FCc1ccc(C(F)(F)CN2CCC(Nc3ncnc4[nH]ncc34)CC2)nc1` [C-7], the pIC50 is below 5.00 at human NR1/NR2A and 7.37 at human NR1/NR2B.

For `CN(C)CCCN1c2ccccc2CCc2ccccc21` [imipramine, reference compound], in the data set on Male mice (strain NLMN) (positive control, 32 mg/kg, IP), the antidepressant activity result is on record as “showed the expected antidepressant activity”.

As for `Fc1cc(Cl)cnc1C(F)(F)CN1CCC(Nc2ncnc3[nH]ncc23)CC1` [C-16, N-(1-(2-(5-chloro-3-fluoropyridin-2-yl)-2,2-difluoroethyl)piperidin-4-yl)-1H-pyrazolo[3,4-d]pyrimidin-4-amine], the pIC50 was 4.89 at hERG channel, 5.00 on CYP2D6, below 5.00 on human NR1/NR2A and 7.52 on human NR1/NR2B.

For `FC(F)(F)c1ccc(C(F)(F)CN2CCC(Nc3ncnc4[nH]ncc34)CC2)nc1` [C-5, N-(1-(2,2-difluoro-2-(5-(trifluoromethyl)pyridin-2-yl)ethyl)piperidin-4-yl)-1H-pyrazolo[3,4-d]pyrimidin-4-amine], the immobility time in the data set on Male mice (strain NLMN) (3 mg/kg IP, vehicle group 188±6.6, p<0.05) came to 111 ± 18.3 s; with Male mice (strain NLMN) (10 mg/kg IP, vehicle group 188±6.6, p<0.01), 89 ± 14.4 s. Also, the negative logarithm of the IC50 (pIC50) at hERG channel is 4.51; on human NR1/NR2A, below 5.00.

For `FC(F)c1ccc(C(F)(F)CN2CCC(Nc3ncnc4[nH]ncc34)CC2)nc1` [C-6], the values for the pIC50 at human NR1/NR2A and on human NR1/NR2B were below 5.00 and 7.47, respectively.

In the case of `FC(F)(F)c1ccc(C(F)(F)CN2CCC(Nc3ncnc4[nH]ncc34)CC2)cn1` [C-127, N-(1-(2,2-difluoro-2-(6-(trifluoromethyl)pyridin-3-yl)ethyl)piperidin-4-yl)-1H-pyrazolo[3,4-d]pyrimidin-4-amine], the pIC50 against hERG channel was 4.64; on human NR1/NR2B it was 7.42.

Take `Cc1n[nH]c2ncnc(NC3CCN(CC(F)(F)c4ccc(C(F)(F)F)cn4)CC3)c12` [C-33, N-(1-(2,2-difluoro-2-(5-(trifluoromethyl)pyridin-2-yl)ethyl)piperidin-4-yl)-3-methyl-1H-pyrazolo[3,4-d]pyrimidin-4-amine]: the negative-log IC50 (pIC50) is below 4.52 against hERG channel; below 5.00 at human NR1/NR2A; 6.96 and 7.05 on human NR1/NR2B.

In the case of `Fc1cnc(C(F)(F)CN2CCC(Nc3ncnc4[nH]ncc34)CC2)c(F)c1` [C-15, N-(1-(2-(3,5-difluoropyridin-2-yl)-2,2-difluoroethyl)piperidin-4-yl)-1H-pyrazolo[3,4-d]-pyrimidin-4-amine], the pIC50 was below 5.00 on human NR1/NR2A and 7.03 at human NR1/NR2B.

`Fc1cc(C(F)(F)F)cnc1C(F)(F)CN1CCC(Nc2ncnc3[nH]ncc23)CC1` [C-18, N-(1-(2,2-difluoro-2-(3-fluoro-5-(trifluoromethyl)pyridin-2-yl)-ethyl)piperidin-4-yl)-1H-pyrazolo[3,4-d]pyrimidin-4-amine]: the immobility time in the data set with Male mice (strain NLMN) (10 mg/kg, 20 minutes after IP dosing, vehicle group 175±14, p<0.01) is 97 ± 16 s. Also, the negative logarithm of the IC50 (pIC50) is below 5.00 on human NR1/NR2A and 7.23 on human NR1/NR2B.

Regarding `FC(F)(CN1CCC(Nc2ncnc3[nH]ncc23)CC1)c1ccccn1` [C-1, N-(1-(2,2-difluoro-2-(pyridin-2-yl)ethyl)piperidin-4-yl)-1H-pyrazolo[3,4-d]pyrimidin-4-amine], the values for the negative logarithm of the IC50 (pIC50) at human NR1/NR2A and at human NR1/NR2B were below 5.00 and 6.75, respectively.

`FC(F)(CN1CCC(Nc2ncnc3[nH]ncc23)CC1)c1ncc(Cl)cc1Cl` [C-24, N-(1-(2-(3,5-dichloropyridin-2-yl)-2,2-difluoroethyl)piperidin-4-yl)-1H-pyrazolo[3,4-d]pyrimidin-4-amine]: the pIC50 was below 5.00 at human NR1/NR2A and 7.28 at human NR1/NR2B.

In the case of `FC(F)(CN1CCC(Nc2ncnc3[nH]ncc23)CC1)c1ccc(Cl)cn1` [C-3], the pIC50 at human NR1/NR2A was below 5.00; at human NR1/NR2B, 7.59.
